Results from ChEMBL document CHEMBL3430912, “GSK Tres Cantos Anti-Kinetoplastid Screening (TCAKS) Data”.

Assays:
Leishmania donovani [1] = experiment: GSK_TCAKS: pIC50 Leishmania donovani viability assay using fluorescence intensity. Assay plates (1536-well) were prepared by adding 30nL per well of compound. For single shot assay, the final compound concentration was 5uM. […] Briefly, eGFP LdBOB axenic amastigotes were harvested, fixed and counted in a CASY cell counter (Roche-Applied Science). A final concentration of 1.5 * 10^5 cells per well were prepared in amastigote media containing 500 U/mL penicillin/streptomycin (Invitrogen) and 6uL was dispensed to each experimental well using a Multidrop Combi dispenser (Thermo Scientific). 6uL of assay media was dispensed to control columns used as reference for 100% compound response. Following incubation for 72 h at 37C, 5% CO2, 2 uL of resazurin was added to each well at a final concentration of 0.5 mM in phosphate buffered saline (PBS) with IGEPAL (Sigma-Aldrich), 0.05% (v/v).; assay type: functional, organism-based
[2] = target: Sterol 14-alpha demethylase (Trypanosoma cruzi (strain CL Brener), UniProt Q7Z1V1); experiment: GSK_TCAKS: pIC50 CYP51 from Trypanosoma cruzi.; assay type: functional
Chain of Sterol 14-alpha demethylase (Q7Z1V1 whole entry): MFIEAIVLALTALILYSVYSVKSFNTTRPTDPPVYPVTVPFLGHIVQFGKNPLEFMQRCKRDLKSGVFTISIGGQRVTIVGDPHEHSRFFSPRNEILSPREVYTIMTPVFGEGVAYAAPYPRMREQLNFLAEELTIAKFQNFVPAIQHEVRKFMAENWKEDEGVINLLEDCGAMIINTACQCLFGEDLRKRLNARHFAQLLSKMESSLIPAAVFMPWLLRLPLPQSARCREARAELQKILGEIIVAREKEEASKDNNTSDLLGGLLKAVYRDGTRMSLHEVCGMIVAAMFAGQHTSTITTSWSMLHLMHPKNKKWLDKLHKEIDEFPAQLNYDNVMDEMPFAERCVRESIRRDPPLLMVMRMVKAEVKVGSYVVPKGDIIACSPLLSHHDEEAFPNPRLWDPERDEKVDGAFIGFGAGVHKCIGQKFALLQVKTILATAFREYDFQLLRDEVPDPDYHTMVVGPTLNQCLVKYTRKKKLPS

Trypanosoma cruzi [3] = experiment: (§1) GSK_TCAKS: pIC50 Trypanosoma cruzi Imaging: Infected Cells. […] Cells were then washed once with PBS before infection. T. cruzi trypomastigotes, collected at days 5 to 8 after infection from LLC-MK2 parasite infected cultures, were allowed to swim out for 4h at 37C from a centrifuged pellet (2,500 rpm/10 min/room temperature). Trypomastigotes were then collected and counted in a CASY Cell Counter. Trypomastigotes, in supplemented DMEM, were added to H9c2 cultures in a multiplicity of infection of 1 and incubated for 18 h. Cells were washed once with PBS before incubation of the infected H9c2 monolayer with trypsin (Life-Technologies) to detach cells from the flask. Cells were counted in a CASY Cell Counter using a 150 um capillary and their density set at 5 * 10^4 cells per mL in supplemented assay DMEM. Infected H9c2 were dispensed into 384-well poly-lysine coated assay plates at 50uL per well using a Multidrop Combi dispenser. After seeding them, the plates were incubated at 37C, 5% CO2 for 72h. Cultures were then fixed and stained by addition of 50 uL of a solution containing 8% formaldehyde and 4 uM DRAQ5 DNA dye (BioStatus, UK) per well. […] Five images were collected per well for reliable statistical analysis. Automated image analysis was performed with a script developed on Acapella High Content Imaging and Analysis Software (PerkinElmer). Output: percentage of infected cells per well as a second infection marker.; assay type: functional, organism-based, Rattus norvegicus; details: H9c2, 4 h
Trypanosoma cruzi [4] = experiment: GSK_TCAKS: pIC50 Trypanosoma cruzi viability assay using beta-GAL activity. This assay was run at single shot at 5uM compound concentration per well. The biological reagents consisted of NIH-3T3 host cells and trypomastigotes parasitic cells; both cell types were set to a 3.3 * 10^5 cells/mL dilution in assay DMEM by means of a CASY cell counter device using a 60um capillary. 6 uL of the mixture were dispensed per well (about 1 * 10^3 host-cells and 1 * 10^3 parasites) with a Multidrop Combi dispenser. […] In all wells, the percentage of DMSO never exceeded 0.5%. Plates incubated for four days at 37C, 5% CO2. The substrate used for the assay fluorescence intensity (FLINT) readout was resorufin-beta-D-galactopiranoside (Sigma-Aldrich) at 5uM per well. It was diluted in PBS supplemented with the soft detergent Igepal (Fluka).; assay type: functional, organism-based, Mus musculus; details: Tulahuen, NIH3T3
[5] = GSK_TCAKS: pIC50 HepG2 human cell line viability assay using luminiscence. […] Seeding density was checked to ensure that new mono-layers were not more than 50% confluent at the time of harvesting. Cell suspension was added to 500 mL of the same medium at a final density of 1.2 * 10^5 cells/mL. This cell suspension was dispensed (25 uL, 3000 cells per well) into 384-well clear-bottom plates using a Multidrop Combi dispenser. Prior to addition of the cell suspension, the screening compounds (250 nL) were pre-dispensed into the plates with an Echo liquid handler. Plates were incubated for 48 h at 37C, 5% CO2. After incubation, plates equilibrated at room temperature for 30 min before proceeding to develop the luminescent signal. The signal developer, CellTiter-Glo Reagent, was allowed to equilibrate at room temperature for 30 min and added to the plates (25uL per well) using a Multidrop Combi dispenser. Plates were left for 10 min at room temperature for stabilization and then read using a ViewLux.; assay type: toxicity, cell-based
Leishmania donovani [6] = experiment: (§2) GSK_TCAKS: pIC50 Leishmania donovani Imaging: Amastigotes/Macrophages. Assay plates (384-well) were prepared by adding 250nL of compound to each well. For single shot assay, the final compound concentration was 5 uM. […] Automated image analysis was performed with a script developed on Acapella High Content Imaging and Analysis Software (PerkinElmer). Output: Average number of amastigotes per macrophage cell were reported for each well.; assay type: functional, organism-based, Homo sapiens; details: THP-1
Trypanosoma cruzi [7] = experiment: as §1, with “H2C9” for “Trypanosoma cruzi”, “H9c2 Host Cardiomyocytes.” for “Infected Cells.”, “Number” for “percentage”, “H9c2 Host Cardiomyocytes nuclei to determine drug-related cytotoxicity.” for “infected cells per well as a second infection marker.”; assay type: functional, organism-based, Rattus norvegicus; details: H9c2, 4 h
[8] = tested on: Trypanosoma brucei brucei; experiment: GSK_TCAKS: pIC50 Trypanosoma brucei viability assay using luminiscence. Assay plates (1536-well) were prepared. T. brucei cultures were harvested and counted in a CASY cell counter. A parasite suspension was prepared at a final concentration of 5 * 10^4 cells/mL in complete HMI9 medium and 6uL was dispensed to all wells containing compounds using a Multidrop Combi dispenser. 6uL of HMI9 media with 0.4% DMSO were dispensed to control columns. Plates were incubated for 24 h at 37C, 5% CO2 then tempered for 10 min at room temperature. ATP content was quantified by adding 4 uL of CellTiter-Glo Reagent (Promega) according to the manufacturer's instructions. Luminescence was measured using a ViewLux.; assay type: functional, organism-based; details: Lister 427, CASY
Trypanosoma cruzi [9] = experiment: GSK_TCAKS: pIC50 Trypanosoma cruzi Imaging: Amastigotes/Cell. […] Cells were then washed once with PBS before infection. T. cruzi trypomastigotes, collected at days 5 to 8 after infection from LLC-MK2 parasite infected cultures, were allowed to swim out for 4h at 37C from a centrifuged pellet (2,500 rpm/10 min/room temperature). Trypomastigotes were then collected and counted in a CASY Cell Counter. Trypomastigotes, in supplemented DMEM, were added to H9c2 cultures in a multiplicity of infection of 1 and incubated for 18 h. Cells were washed once with PBS before incubation of the infected H9c2 monolayer with trypsin (Life-Technologies) to detach cells from the flask. Cells were counted in a CASY Cell Counter using a 150 um capillary and their density set at 5 * 10^4 cells per mL in supplemented assay DMEM. Infected H9c2 were dispensed into 384-well poly-lysine coated assay plates at 50uL per well using a Multidrop Combi dispenser. After seeding them, the plates were incubated at 37C, 5% CO2 for 72h. Cultures were then fixed and stained by addition of 50 uL of a solution containing 8% formaldehyde and 4 uM DRAQ5 DNA dye (BioStatus, UK) per well. […] Five images were collected per well for reliable statistical analysis. Automated image analysis was performed with a script developed on Acapella High Content Imaging and Analysis Software (PerkinElmer). Output: number of amastigotes per cell as infection level measurement.; assay type: functional, organism-based, Rattus norvegicus; details: H9c2, 4 h
[10] = tested on: Trypanosoma brucei brucei; experiment: GSK_TCAKS: pIC50 Trypanosoma brucei viability assay using fluorescence intensity. Assay plates (1536-well) were prepared by dispensing 25nL of compound solution per well using an Echo acoustic dispenser (Labcyte).; assay type: functional, organism-based; details: Lister 427, 2 h
Leishmania donovani [11] = experiment: as §2, with “Infected Macrophages.” for “Amastigotes/Macrophages.”, “Percent” for “Average number”, “infected” for “amastigotes per”, “cells” for “cell”; assay type: functional, organism-based, Homo sapiens; details: THP-1
Leishmania donovani [12] = experiment: as §2, with “THP-1 Host Macrophages.” for “Amastigotes/Macrophages.”, “THP-1” for “Average number of amastigotes per macrophage”, “cell count” for “cell”; assay type: functional, organism-based, Homo sapiens

Row | SMILES | IC50 (Leishmania donovani [1]) | IC50 [2] | IC50 (Trypanosoma cruzi [3]) | IC50 (Trypanosoma cruzi [4]) | IC50 at 48 h [5] | IC50 (Leishmania donovani [6]) | IC50 (Trypanosoma cruzi [7]) | IC50 [8] | IC50 (Trypanosoma cruzi [9]) | IC50 [10] | IC50 (Leishmania donovani [11]) | IC50 (Leishmania donovani [12])
1 | Oc1cc(CSc2ccc(Cl)cc2)nc(-c2ccccn2)n1 | 1.58 µM | 63.1 µM | 1.58 µM | 1 µM | > 100 µM | 2 µM | 3.16 µM | 1 µM | 0.794 µM | 0.794 µM | 5.01 µM | 3.98 µM
2 | CCc1c(C)nc(-n2nc(C)cc2NC(=O)COc2ccccc2F)[nH]c1=O | 0.126 µM | > 100 µM | 0.631 µM | 0.631 µM | > 100 µM | 5.01 µM | 2.51 µM | 0.2 µM | 0.158 µM | 0.158 µM | 7.94 µM | 3.98 µM
3 | COc1ccc(C(=O)[C@H]2C[C@@H]2CN(Cc2ccccn2)Cc2ccccn2)cc1 | 7.94 µM | 39.8 µM | 1.58 µM | 1.58 µM | > 100 µM | 1.26 µM | 25.1 µM | 15.8 µM | 1 µM | 6.31 µM | 1.58 µM | > 50.1 µM
4 | CCS(=O)(=O)c1cccc(C(=O)Nc2nc(-c3ccccn3)cs2)c1 | 1.26 µM | 63.1 µM | 2.51 µM | 1.58 µM | 25.1 µM | 3.16 µM | 3.98 µM | 0.631 µM | 1.58 µM | 0.501 µM | 3.98 µM | 20 µM
5 | COc1cc2c(cc1OC)[C@H]1[C@@H](C)c3ccc(OC)c(OC)c3CN1CC2 | 2.51 µM | 79.4 µM | > 50.1 µM | 25.1 µM | > 100 µM | 15.8 µM | > 50.1 µM | > 39.8 µM | 20 µM | 25.1 µM | 20 µM | > 50.1 µM
6 | CCc1cccc(-n2nc(OCC(=O)NC3CCCC3)c3cccnc32)c1 | 2.51 µM | > 100 µM | > 50.1 µM | > 50.1 µM | > 100 µM | 1.26 µM | > 50.1 µM | > 39.8 µM | > 50.1 µM | > 39.8 µM | 1 µM | > 50.1 µM
7 | O=[N+]([O-])c1ccc(-c2nnn(-c3cccnc3)n2)o1 | 15.8 µM | 3.98 µM | > 50.1 µM | 0.251 µM | > 100 µM | 50.1 µM | 6.31 µM | 0.501 µM | 0.0631 µM | 0.316 µM | > 50.1 µM | 12.6 µM
8 | O=[N+]([O-])c1ccc(-c2nnn(-c3ccc(Cl)cc3)n2)o1 | 6.31 µM | > 100 µM | 0.794 µM | 0.251 µM | > 100 µM | > 50.1 µM | 10 µM | 1 µM | 0.0794 µM | 0.316 µM | > 50.1 µM | > 50.1 µM
9 | COCc1cc(Nc2ccc(Cl)cc2)nc(-c2ccccn2)n1 | 2.51 µM | > 100 µM | 5.01 µM | 1.58 µM | 12.6 µM | 0.794 µM | 1.26 µM | > 39.8 µM | 2.51 µM | 20 µM | 1.26 µM | 20 µM
